Results: patent publication US20260125375A1 (Pfizer Inc., priority 2022, published 2026)

How the values were obtained:
C-CBL (residues 46-435) = target: T1, C-CBL (residues 46-435) (Homo sapiens, UniProt P22681); experiment: Ligand Displacement Assay (LDA), HTRF competitive binding against BODIPY-labeled fluorescent tracer, C-CBL; conditions: geometric mean of the number of tests, read-out: C-CBL Ki (nM) GMean
T1 construct: Purified CBL-B (residues 36-427) and C-CBL (residues 46-435) proteins from baculovirus-infected insect cells; made in house; host or cells: baculovirus-infected insect cells
T1 sequence (P22681 46-435): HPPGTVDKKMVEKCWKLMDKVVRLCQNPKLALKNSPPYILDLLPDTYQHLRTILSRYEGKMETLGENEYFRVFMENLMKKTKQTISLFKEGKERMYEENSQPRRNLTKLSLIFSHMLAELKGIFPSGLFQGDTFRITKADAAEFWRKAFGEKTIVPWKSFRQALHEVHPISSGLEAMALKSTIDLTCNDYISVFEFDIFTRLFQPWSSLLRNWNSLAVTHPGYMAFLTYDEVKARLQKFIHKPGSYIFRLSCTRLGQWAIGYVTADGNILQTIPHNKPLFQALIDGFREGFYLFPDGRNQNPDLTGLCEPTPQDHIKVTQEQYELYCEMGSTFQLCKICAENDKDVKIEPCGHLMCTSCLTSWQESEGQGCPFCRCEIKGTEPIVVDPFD
Outline: (§1)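 Insect-cell (baculovirus) protein, N-term AviTag biotinylated via BirA, captured by SA-Tb; BODIPY tracer, KD measured per protein. 3-fold serial dilutions, duplicate, […], 2% DMSO final. Ki (nM) = geomean of runs.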

WT CBL-B (36-427) = target: T2, WT CBL-B (36-427) (Homo sapiens, UniProt Q13191); experiment: Surface Plasmon Resonance (SPR) assay, binding affinity and kinetics, CBL-B; conditions: SPR at 10° C., biotinylated WT CBL-B (36-427) on streptavidin chip; geometric mean; read-out: CBL-B SPR Kd (nM) GMean
T2 construct: N-terminal biotinylated WT CBL-B (36-427) and C-CBL (46-435) were captured on a streptavidin (SA) coated sensor chip
Outline: (§2)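 Biotinylated WT CBL-B (36-427) or C-CBL (46-435) captured on streptavidin chip (~5000–6000 RU); binding at 10° C in HEPES buffer pH 7.2 with 2% DMSO. Multi-cycle: 2-fold, 10-point series from 10 or 100 μM, 90 s association. Single-cycle: 3-fold, 6-point, 0.001–1 μM, 120 s association, >5400 s dissociation.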

CBL-B (residues 36-427) = target: T3, CBL-B (residues 36-427) (Homo sapiens, UniProt Q13191); experiment: Ligand Displacement Assay (LDA), HTRF competitive binding against BODIPY-labeled fluorescent tracer, CBL-B; conditions: geometric mean of the number of tests, read-out: CBL-B Ki (nM) GMean
T3 construct: Purified CBL-B (residues 36-427) and C-CBL (residues 46-435) proteins from baculovirus-infected insect cells; made in house; host or cells: baculovirus-infected insect cells
Outline: as §1

C-CBL (46-435) = target: T4, C-CBL (46-435) (Homo sapiens, UniProt P22681); experiment: Surface Plasmon Resonance (SPR) assay, binding affinity and kinetics, C-CBL; conditions: SPR at 10° C., biotinylated C-CBL (46-435) on streptavidin chip; geometric mean; read-out: C-CBL SPR Kd (nM) GMean
T4 construct: N-terminal biotinylated WT CBL-B (36-427) and C-CBL (46-435) were captured on a streptavidin (SA) coated sensor chip
T4 sequence (P22681 46-435): T1 sequence (P22681 46-435)
Outline: as §2

| SMILES | Ki (C-CBL (residues 46-435)) | Kd (WT CBL-B (36-427)) | Ki (CBL-B (residues 36-427)) | Kd (C-CBL (46-435)) |
| --- | --- | --- | --- | --- |
| Cn1cnnc1CC1(c2cccc(-c3n[nH]c4c(CN5CCC(F)(F)C5)nc(C(F)(F)F)cc34)c2)COC1 [Example C70, 7-[(3,3-difluoropyrrolidin-1-yl)methyl]-3-(3-{3-[(4-methyl-4H-1,2,4-triazol-3-yl)methyl]oxetan-3-yl}phenyl)-5-(trifluoromethyl)-1H-pyrazolo[3,4-c]pyridine] | 113 nM | 6 nM | 20.6 nM | 80 nM |
| Cn1cnnc1CC1(c2cccc(-c3n[nH]c4c(CN5CC[C@@H](F)C5)nc(C(F)(F)F)cc34)c2)COC1 [Example C71, 7-{[(3R)-3-fluoropyrrolidin-1-yl]methyl}-3-(3-{3-[(4-methyl-4H-1,2,4-triazol-3-yl)methyl]oxetan-3-yl}phenyl)-5-(trifluoromethyl)-1H-pyrazolo[3,4-c]pyridine] | 124 nM | 10.8 nM | 25.5 nM | 108 nM |
| C[C@@H]1CN(Cc2nc(C(F)(F)F)cc3c(-c4cccc(C5(Cc6nncn6C)COC5)c4)n[nH]c23)CCO1 [Example C72, 7-{[(2R)-2-methylmorpholin-4-yl]methyl}-3-(3-{3-[(4-methyl-4H-1,2,4-triazol-3-yl)methyl]oxetan-3-yl}phenyl)-5-(trifluoromethyl)-1H-pyrazolo[3,4-c]pyridine] | 83.3 nM | 2.3 nM | 18.6 nM | 63.1 nM |
| Cn1cnnc1CC1(c2cccc(-c3n[nH]c4c(CN5CC[C@H](F)C5)nc(C(F)(F)F)cc34)c2)COC1 [Example C73, 7-{[(3S)-3-fluoropyrrolidin-1-yl]methyl}-3-(3-{3-[(4-methyl-4H-1,2,4-triazol-3-yl)methyl]oxetan-3-yl}phenyl)-5-(trifluoromethyl)-1H-pyrazolo[3,4-c]pyridine] | 111 nM | 9 nM | 19.3 nM | 94 nM |
| Cn1cnnc1[C@@H](c1cccc(-c2n[nH]c3c(CN4C[C@@H](O)[C@H](O)C4)nc(C(F)(F)F)cc23)c1)C1CCC1 [Example C74, (3R,4R)-1-{[3-{3-[(R)-cyclobutyl(4-methyl-4H-1,2,4-triazol-3-yl)methyl]phenyl}-5-(trifluoromethyl)-1H-pyrazolo[3,4-c]pyridin-7-yl]methyl}pyrrolidine-3,4-diol] | 83.1 nM | 3.2 nM | 7.5 nM | 103 nM |
| Cn1cnnc1[C@@H](c1cccc(-c2n[nH]c3c(CN4C[C@@H](O)[C@@H](O)C4)nc(C(F)(F)F)cc23)c1)C1CCC1 [Example C75, (3R,4S)-1-{[3-{3-[(R)-cyclobutyl(4-methyl-4H-1,2,4-triazol-3-yl)methyl]phenyl}-5-(trifluoromethyl)-1H-pyrazolo[3,4-c]pyridin-7-yl]methyl}pyrrolidine-3,4-diol] | 54.8 nM | 4.7 nM | 5 nM | 97.9 nM |
| Cn1cnnc1[C@@H](c1cccc(-c2n[nH]c3c(CN4C[C@H](O)[C@@H](O)C4)nc(C(F)(F)F)cc23)c1)C1CCC1 [Example C76, (3S,4S)-1-{[3-{3-[(R)-cyclobutyl(4-methyl-4H-1,2,4-triazol-3-yl)methyl]phenyl}-5-(trifluoromethyl)-1H-pyrazolo[3,4-c]pyridin-7-yl]methyl}pyrrolidine-3,4-diol] | 41.4 nM | 2.5 nM | 3.3 nM | 52.1 nM |
| Cn1cnnc1[C@@H](c1cccc(-c2n[nH]c3c(CN4CC[C@H](O)C4)nc(C(F)(F)F)cc23)c1)C1CCC1 [Example C77, (3S)-1-{[3-{3-[(R)-cyclobutyl(4-methyl-4H-1,2,4-triazol-3-yl)methyl]phenyl}-5-(trifluoromethyl)-1H-pyrazolo[3,4-c]pyridin-7-yl]methyl}pyrrolidin-3-ol] | 29.5 nM | 2.5 nM | 2.4 nM | 54.9 nM |
